Data taken from publication PMC9299640, “Incorporation of β‐Alanine in Cu(II) ATCUN Peptide Complexes Increases ROS Levels, DNA Cleavage and Antiproliferative Activity” (Chemistry (Weinheim an Der Bergstrasse, Germany), 2021).

Tests used:
CT-DNA = experiment: DNA melting curves by UV/VIS spectroscopy; assay type: binding, calf
[1] = tested on: SW480 (colon adenocarcinoma); experiment: Antiproliferative activity, sulforhodamine B (SRB) assay; assay type: cell-based, human
Description: (§1) The antiproliferative activity of selected Cu(II) ATCUN complexes was investigated towards different tumor cell lines (HCT116, NCI-H460, SiHa and SW480 cells) and expressed as the IC50 values.
(§2) Table S13. Accumulation of Cu in HCT116 cells after 24 h incubation with Cu-GGH, 1, 3, 4 and CuCl2 (70 µM) as determined by ICP-MS (n = 3), and cytotoxic activity in human cancer cell lines HCT116, NCI-H460, SiHa and SW480 expressed as the IC50 ± SD (in µM) as well as by the residual viable cells after treatment with 70 μM of the respective compound (%) as determined by the SRB assay (exposure time 72 h). accumulated Cu IC50 values […]
(§3) a – indicates no antiproliferative activity observed after treatment with the respective compound at 70 μM for 72 h.
(§4) S-12.1 Determination of IC50 values against HCT116, NCI-H460, SiHa and SW480 […]
(§5) HCT116, SW480 and NCI-H460 cells were supplied by ATCC, while SiHa cells were supplied by Dr. David Cowan, of the Ontario Cancer Institute, Canada. The cells were grown in α-MEM (Life Technologies) supplemented with 5% fetal calf serum (Moregate Biotech) at 37 °C in a humidified incubator with 5% CO2. […]
(§6) in 96-well plates and left to settle for 24 h. Compounds were added as water solutions to the plates in a series of 3-fold dilutions for 72 h before the assay was terminated by addition of 10% trichloroacetic acid (Merck Millipore) at 4 °C for 1 h. Cells were stained […]
(§7) with 0.4% sulforhodamine B (Sigma-Aldrich) in 1% acetic acid for 30 min in the dark at room temperature and then washed with 1% acetic acid to remove unbound dye. The stain was dissolved in unbuffered Tris base (10 mM, Serva) for 30 min on a plate shaker in the dark and quantified on a BioTek EL808 microplate reader at an absorbance of 490 nm with a reference wavelength of 450 nm to determine the percentage of cell-growth inhibition by determining the absorbance of each sample relative to a negative (no inhibitor) and a no-growth control (day 0). IC50 values were calculated with SigmaPlot 12.5 (Systat Software Inc.) using a three-parameter logistic sigmoidal dose−response curve between the calculated growth inhibition and the compound concentration. The presented IC50 values are the mean of at least three independent experiments, where 10 concentrations were tested in duplicate for each compound.
(§8) Ventures), by diluting with a matrix-matched solution with regard to HNO3 and Tm concentration, producing calibration standards with concentrations of 0.5, 1, 3, 5, 7, 10, […]
(§9) The measured Cu concentrations in the cell accumulation samples were in the range of 27–82 μg/L. The reported values are the means of at least three independent accumulation experiments conducted in triplicates with blank wells for each substance to account for unspecific binding of the Cu(II) complexes to the plastic of the well plates.
(§10) Accumulation values have been corrected by subtracting the average amount Cu determined in the cell-free wells.
(§11) Calibration curves for Cu were prepared with concentrations ranging from 0.5–100 µg/L. The limit of detection (LOD) was defined as 3 times the random error in the y-direction (Sy/x) of the calibration curve divided by the slope of the calibration curve. The limit of quantification (LOQ) was defined as 10 times the random error in the y-direction (Sy/x) of the calibration curve divided by the slope of the calibration curve.42 The LOD was determined for Cu as 1.8 μg/L and the LOQ was 5.95 μg/L.

[2] = tested on: NCI-H460 (non-small cell lung carcinoma); experiment: as above; assay type: cell-based, human; settings: exposure 72 h, 3-fold dilutions, α-MEM + 5% fetal calf serum, 37 °C, mean ± SD of at least three independent experiments
Description: as §1, §2, §3, §4, §5, §6, §7, §8, §9, §10, §11

[3] = tested on: SiHa (cervical carcinoma); experiment: as above; assay type: cell-based, human
Description: as §1, §2, §3, §4, §5, §6, §7, §8, §9, §10, §11

[4] = tested on: HCT116 (colorectal carcinoma); experiment: as above; assay type: cell-based, human
Description: as §1, §2, §3, §4, §5, §6, §7, §8, §9, §10, §11

[5] = after treatment with 70 μM, 72 h
[6] = exposure 72 h, 3-fold dilutions, α-MEM + 5% fetal calf serum, 37 °C, mean of at least three independent experiments

## [Cl][Cu][Cl] [CuCl2, reference compound]
CT-DNA; 2.5 µM complex or CuCl2, CT-DNA 50 µM (ref. Tm 78.3 °C), MOPS 50 mM pH 7.4
  ΔTm relative to CT-DNA: 3.2 °C
CT-DNA; 2.5 µM complex or CuCl2, CT-DNA 50 µM, MOPS 50 mM pH 7.4, 260 nm, 0.5 °C/min, Cu(II):peptide 1:1.05
  Tm of CT-DNA after treatment: 81.5 °C
[1]; [5]
  residual viable cells SW480: – (indicates no antiproliferative activity observed after treatment with the respective compound at 70 μM for 72 h)
[1]; [6]
  IC50: > 70 µM
[2]
  IC50: > 70 µM
[3]; [5]
  residual viable cells SiHa: 93 ± 22%
[3]; [6]
  IC50: > 70 µM
[4]; [5]
  residual viable cells HCT116: 87 ± 6%
[4]; exposure 72 h, 3-fold dilutions, α-MEM + 5% fetal calf serum, 37 °C, Cu(II):peptide 1:1.05, mean ± SD of at least three independent experiments
  IC50: > 70 µM
